According to US12060360B2, “Lysyl oxidase inhibitors” (The Institute of Cancer Research: Royal Cancer Hospital, priority 2017, dated 2024):

Experiments:
[1] = system: SW620 human colorectal carcinoma cells (mutant RAS); assay: SW620 xenografts, primary tumour volume T/C; type: in vivo; conditions: 200 mg/kg po qd; ratio of average tumour volume treated/vehicle control; p<0.05
Method: (§1) All procedures involving animals were approved by the Animal Welfare and Ethical Review Body of the Institute of Cancer Research and Cancer Research UK Manchester Institute in accordance with National Home Office regulations under the Animals (Scientific Procedures) Act 1986 and according to the guidelines of the Committee of the National Cancer Research Institute Tumour size was determined by caliper measurements of tumour length, width and depth and volume was calculated as volume=0.5236×length×width×depth (mm).
SW620 xenografts: NCr mice were inoculated subcutaneously in the right flank with 5×10^6 SW620 cells at 100 ul suspension per animal. Groups of 7-8 mice were assigned to treatment following stratified allocation of tumour volumes with a median size of circa 100 mm^3. […] Tumours and weights are measured twice weekly using calipers. […] Frozen samples are kept at −80 degree centigrade until being analysed and the fixed samples stained according to the desired marker.
For therapeutic efficacy assessment, the ratio of average tumour volume between compound treated and vehicle control treated (T/C) is calculated. […] The efficacy of LOX inhibitors described in this invention, as measured by T/C in a pancreatic cancer model, a colorectal cancer model and a breast cancer model is shown in Table 2 and is significant (p<0.05) for all the data presented.

[2] = system: MDA-MB-231 human breast adenocarcinoma; assay: MDA-MB-231 xenografts, primary tumour volume T/C; type: in vivo; conditions: 200 mg/kg po qd, ratio of average tumour volume treated/vehicle control, p<0.05
Method: as §1
MDA-MB-231 xenografts. Ncr nude female mice at 6 weeks old from Charles River were injected into the third upper nipple mammary fat pad with MDA-MB-231 Luc 4×10^6 in 100 ul PB (50:50 Matrigel). When tumours reach a mean of 80 mm^3 around 10 days post cell inoculation the animals are allocated in 4 groups of 8. LOX inhibitor treatment is then administrated by oral gavage dosing, at 0.2 ml/20 g bodyweight once daily for up to 28 consecutive days. Tumours and weights are measured twice weekly using calipers and the animals can be imaged using non invasive method by bioluminescence using IVIS 200 imaging machine, weekly using 150 mg/kg luciferin administrate intraperitoneal or subcutaneous. At the end of the study the animals are culled, and samples taken, fixed or snap frozen in liquid nitrogen. Frozen samples kept at −80 degree centigrade until being analyzed and the fixed samples stained according to desired marker.
For therapeutic efficacy assessment, the ratio of average tumour volume between compound treated and vehicle control treated (T/C) is calculated. Reduction in tumour volume in the compound treated group compared to vehicle-treated control group results in T/C<1. The efficacy of LOX inhibitors described in this invention, as measured by T/C in a pancreatic cancer model, a colorectal cancer model and a breast cancer model is shown in Table 2 and is significant (p<0.05) for all the data presented.

**Q.** Which “T/C SW620 human colorectal carcinoma cells (mutant RAS) - primary tumour” value [1] does the source give for CCOc1ccc(N2C[C@H]3CN(CCCC#N)C[C@@H]2C(C)(C)C3)cc1 [Example 42, 4-((1R,5S)-6-(4-ethoxyphenyl)-9,9-dimethyl-3,6-diazabicyclo[3.2.2]nonan-3-yl)butanenitrile] here?
**A.** 0.54

**Q.** And the response vs control in vivo at 200 mg/kg [2]?
**A.** 41%
